Here are results for seven compounds from PubChem BioAssay AID2060492 (Molecular Pharmacology Branch, DTP, NCI, 2025).

Molecules are shown by their SMILES. Where “and” joins values, the source holds several entries; their conditions need not be identical. Equal values may be shown once.

The test system of the test is 695427-040-R-J1-PDC complex spheroids, viability percent T/C. Nature of the test: Anticancer human tumor 695427-040-R-J1-PDC patient-derived colon adenocarcinoma cell line growth inhibition [GQUAD]. Particulars: for viability, T/C: stronger effect = lower value. The text has this: DNA G-quadruplex Stabilizer Agents in Combinations in Complex Spheroids
A high-throughput screen of multi-cell type tumor spheroids was designed to identify active combinations of DNA G-quadruplex stabilizer agents and targeted small molecules. Complex spheroids include a stromal component modeled by human endothelial cells (HUVEC) and fibroblasts modeled by human mesenchymal stem cells (MSCs). The concentration ranges selected for each drug and investigational agent were based upon clinically achievable concentrations if the clinical Cmax of the agent was known.
Compounds. The drugs and investigational agents: pidnarulex (CX-5461; NSC782164), APTO-253 (NSC789042), BRACO-19 (NSC847499), peposertib (NSC802822), ceralasertib (NSC780249), elimusertib (NSC800525), camonsertib (NSC841442), AZD-1390 (NSC803789), olaparib (NSC753686), talazoparib (NSC767125), ART-558 (NSC835418), sotorasib (NSC818433), MRTX-1133 (NSC836407), SN-38 (NSC673596), topotecan (NSC609699), etoposide (NSC141540), doxorubicin (NSC123127), gemcitabine (NSC613327), 5-fluorouracil (NSC19893), paclitaxel (NSC125973), vemurafenib (NSC761431), panobinostat (NSC761190), R-306465 (JNJ-16241199; NSC773264), adavosertib (NSC754352), TP-3654 (NSC805149), carboplatin (NSC241240), KSQ-4279 (NSC840948), and staurosporine (NSC755774) were obtained from the National Cancer Institute (NCI) Developmental Therapeutics Program Chemical Repository (34). The FDA-approved anticancer drug set is available from the NCI Developmental Therapeutics Program. […] The stock solutions were prepared in dimethyl sulfoxide (DMSO, Sigma-Aldrich, St. Louis, MO, cat. D2650) at 800-fold the tested concentration and stored at -70 degrees C prior to their use. All drugs and investigational agents were tested over a range starting from a high concentration at or near the clinical Cmax and decreasing in half-log increments. If the clinical Cmax for an agent had not been determined, the highest concentration tested was 10 microM.
2.3 Cell Culture. All cells were maintained in an incubator at 37 degrees C and 5% CO2 with 95% humidity. The PDC lines were cultured according to standard operating procedures established by the NCI PDMR. All PDCs were thawed and cultured in Matrigel-coated flasks prepared with a working solution of 1X Ham's F-12 nutrient mix, without supplementation (Invitrogen, cat. 11765054), 100 U/mL penicillin-streptomycin (Invitrogen, cat. 15140122), and 2.5% Matrigel (Corning Inc., cat. 354248) for the first three passages. The 857933-349-R-J2-PDC line was cultured in 6C/Colon 1B media, which includes advanced DMEM/F-12 (Thermo Fisher Scientific, cat. 12634028), 10 mM HEPES (Thermo Fisher Scientific, cat. 15630080), 1X GlutaMAX supplement (Thermo Fisher Scientific, cat. 35050061), 0.1 mg/mL primocin (InvivoGen, cat. ant-pm-2), 10% defined fetal bovine serum, heat inactivated (HyClone Laboratories Inc., cat. SH30070.03HI), 50% L-WRN conditioned media (ATCC, cat. CRL-3276), 1.25 mM N-Acetyl-L-cysteine (Sigma-Aldrich, cat. A9165), 10 mM nicotinamide (Sigma-Aldrich, cat. N0636), 1X B-27 supplement (Thermo Fisher Scientific, cat. 17504044), 1X N-2 supplement (Thermo Fisher Scientific, cat. 17502048), 10 microM Y-27632 dihydrochloride (Tocris Bioscience, cat. 1254), and 50 ng/mL human EGF recombinant protein (Thermo Fisher Scientific, cat. PHG0311). The 485176-168-R4-J1-PDC line was cultured in Panc media, which includes all 6C/Colon 1B media components plus 100 ng/mL human FGF-10 (Thermo Fisher Scientific, cat. 100-26), 500 nM SB-431542 (Selleckchem, cat. S1067), and gastrin (Tocris, cat. 3006).
[…]

The mark [1] stands for this setting: curve of first compound, second compound 0.0316 µM.
The mark [2] stands for this setting: curve of first compound, second compound 0.1 µM.
[3] abbreviates: curve of first compound, second compound 0.316 µM.
Setting [4] is: curve of first compound, second compound 1 µM.
[5] abbreviates: curve of first compound, second compound 3.16 µM.
The mark [6] stands for this setting: curve of first compound, second compound 10 µM.
[7] abbreviates: second compound 0.0316 µM, first compound 0.0316 µM.
Setting [8] is: second compound 0.0316 µM, first compound 0.1 µM.
[9] abbreviates: second compound 0.0316 µM, first compound 0.316 µM.
The mark [10] stands for this setting: second compound 0.0316 µM, first compound 1 µM.
[11] abbreviates: second compound 0.0316 µM, first compound 3.16 µM.
The mark [12] stands for this setting: second compound 0.0316 µM, first compound 10 µM.
Where [13] appears, read: second compound 0.1 µM, first compound 0.0316 µM.
[14] abbreviates: second compound 0.1 µM, first compound 0.1 µM.
Setting [15] is: second compound 0.1 µM, first compound 0.316 µM.
[16] abbreviates: second compound 0.1 µM, first compound 1 µM.
The mark [17] stands for this setting: second compound 0.1 µM, first compound 3.16 µM.
Where [18] appears, read: second compound 0.1 µM, first compound 10 µM.
Setting [19] is: second compound 0.316 µM, first compound 0.0316 µM.
Where [20] appears, read: second compound 0.316 µM, first compound 0.1 µM.
Setting [21] is: second compound 0.316 µM, first compound 0.316 µM.
The mark [22] stands for this setting: second compound 0.316 µM, first compound 1 µM.
Where [23] appears, read: second compound 0.316 µM, first compound 3.16 µM.
Setting [24] is: second compound 0.316 µM, first compound 10 µM.
[25] abbreviates: second compound 1 µM, first compound 0.0316 µM.
Setting [26] is: second compound 1 µM, first compound 0.1 µM.
Where [27] appears, read: second compound 1 µM, first compound 0.316 µM.
[28] abbreviates: second compound 1 µM, first compound 1 µM.
The mark [29] stands for this setting: second compound 1 µM, first compound 3.16 µM.
The mark [30] stands for this setting: second compound 1 µM, first compound 10 µM.
Setting [31] is: second compound 3.16 µM, first compound 0.0316 µM.
Where [32] appears, read: second compound 3.16 µM, first compound 0.1 µM.
Where [33] appears, read: second compound 3.16 µM, first compound 0.316 µM.
[34] abbreviates: second compound 3.16 µM, first compound 1 µM.
[35] abbreviates: second compound 3.16 µM, first compound 3.16 µM.
The mark [36] stands for this setting: second compound 3.16 µM, first compound 10 µM.
The mark [37] stands for this setting: second compound 10 µM, first compound 0.0316 µM.
Where [38] appears, read: second compound 10 µM, first compound 0.1 µM.
[39] abbreviates: second compound 10 µM, first compound 0.316 µM.
Setting [40] is: second compound 10 µM, first compound 1 µM.
[41] abbreviates: second compound 10 µM, first compound 3.16 µM.
The mark [42] stands for this setting: second compound 10 µM, first compound 10 µM.
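Also: spheroids exposed to compounds for seven days before readout.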

In the case of `CC(C)(O)C1CCC(Nc2ccc3ncc(-c4cccc(C(F)(F)F)c4)n3n2)CC1` (centres undefined), the viability, T/C was 109% and 99.2% and 78.5% (compound 0.0316 µM); 101% and 97.4% and 88.4% (compound 0.1 µM); 111% and 94.6% and 101% (compound 0.316 µM); 105% and 80.1% and 66.9% (compound 1 µM); 97.6% and 16% and 12.7% (compound 3.16 µM); 87.6% and 15.5% and 13.5% (compound 10 µM). Moreover, the IC50 (curve of compound) is > 10 µM and 1.72 µM and 1.44 µM.
With `CC1COCCN1c1cc(-c2ccnn2C)c2ccnc(-c3ccn[nH]3)c2n1` (centres undefined), the viability, T/C was 88.2% and 92.1% and 81.5% (compound 0.0316 µM); 71.7% and 79.9% and 54.3% (compound 0.1 µM); 50.6% and 61.6% and 45.6% (compound 0.316 µM); 34.4% and 49.4% and 35.4% (compound 1 µM); 27.7% and 46.1% and 23% (compound 3.16 µM); 26.8% and 40.4% and 24.8% (compound 10 µM). Further, the IC50 (curve of compound) is 0.318 µM and 0.979 µM and 0.181 µM.
For `CCCS(=O)(=O)Nc1ccc(F)c(C(=O)c2c[nH]c3ncc(-c4ccc(Cl)cc4)cc23)c1F`, the viability, T/C by setting is: (compound 0.0316 µM) 96% and 108% and 99.2%; (compound 0.1 µM) 92.3% and 101% and 87.5%; (compound 0.316 µM) 90.3% and 110% and 114%; (compound 1 µM) 79.9% and 102% and 101%; (compound 3.16 µM) 65.4% and 116% and 103%; (compound 10 µM) 58.2% and 67.2% and 40.1%. Besides, the 50% inhibitory concentration (IC50) (curve of compound) was > 10 µM and 8.3 µM.
As to `O=C(NO)c1cnc(N2CCN(S(=O)(=O)c3ccc4ccccc4c3)CC2)nc1` + Cc1cnc(CNC(=O)c2c(=O)c3ccc(N4CCCN(C)CC4)nc3n3c2sc2ccccc23)cn1, the half-inhibitory concentration (IC50) reads like this: under setting [1], 0.418 µM; under setting [2], 0.445 µM; under setting [3], 0.281 µM; under setting [4], 0.172 µM; under setting [5], below 0.0316 µM; under setting [6], below 0.0316 µM. Also, the viability, T/C by setting is: under setting [7], 91.1%; under setting [8], 78.5%; under setting [9], 64.4%; under setting [10], 6.15%; under setting [11], 0.22%; under setting [12], 0.22%. Besides, the viability, T/C by setting is: under setting [13], 87.2%; under setting [14], 65.5%; under setting [15], 68.3%; under setting [16], 7.35%; under setting [17], 0.34%; under setting [18], 0.28%. Also, the viability, T/C is 85.3% under setting [19]; 70.1% under setting [20]; 49.8% under setting [21]; 6.3% under setting [22]; 0.18% under setting [23]; 0.19% under setting [24]. Moreover, the viability, T/C runs as follows: under setting [25], 56.4%; under setting [26], 58.3%; under setting [27], 41.7%; under setting [28], 0.29%; under setting [29], 0.1%; under setting [30], 0.17%. Further, the viability, T/C runs as follows: under setting [31], 48.4%; under setting [32], 45.6%; under setting [33], 23.1%; under setting [34], 0.14%; under setting [35], 0.11%; under setting [36], 0.12%. In addition, the viability, T/C is 24.2% under setting [37]; 13.8% under setting [38]; 0.3% under setting [39]; 0.15% under setting [40]; 0.17% under setting [41]; 0.18% under setting [42].
As for `O=c1[nH]cc(F)c(=O)[nH]1`, the viability, T/C (compound 0.0316 µM) was 95.9% and 105% and 110%; the viability, T/C (compound 0.1 µM) was 85.8% and 99.6% and 96.4%; the viability, T/C (compound 0.316 µM) is 86% and 106% and 100%; the viability, T/C (compound 1 µM) was 97.5% and 100% and 88.9%; the viability, T/C (compound 3.16 µM) is 80.1% and 63.3% and 102%; the viability, T/C (compound 10 µM) was 86.5% and 98.3% and 92%. Besides, the concentration for half-maximal inhibition (IC50) (curve of compound) is above 10 µM.
Take `O=C(c1cc(Cc2n[nH]c(=O)c3ccccc23)ccc1F)N1CCN(C(=O)C2CC2)CC1` + CN(C)c1ccc(Nc2c3ccc(NC(=O)CCN4CCCC4)cc3nc3cc(NC(=O)CCN4CCCC4)ccc23)cc1: the IC50 under setting [1] is above 10 µM; the IC50 under setting [2] is above 10 µM; the concentration for half-maximal inhibition (IC50) under setting [3] is above 10 µM; the IC50 under setting [4] was above 10 µM; the IC50 under setting [5] was above 10 µM; the IC50 under setting [6] is above 10 µM. Further, the viability, T/C is 111% under setting [7]; 100% under setting [8]; 93.4% under setting [9]; 102% under setting [10]; 107% under setting [11]; 90.8% under setting [12]. For the same compound, the viability, T/C under setting [13] is 107%; the viability, T/C under setting [14] was 94.2%; the viability, T/C under setting [15] was 104%; the viability, T/C under setting [16] is 95.9%; the viability, T/C under setting [17] was 103%; the viability, T/C under setting [18] was 96%. For the same compound, the viability, T/C by setting is: under setting [19], 99.2%; under setting [20], 89.1%; under setting [21], 95.9%; under setting [22], 98.9%; under setting [23], 100%; under setting [24], 97.2%. Further, the viability, T/C is, setting by setting: under setting [25], 93.2%; under setting [26], 88.7%; under setting [27], 98.5%; under setting [28], 93.6%; under setting [29], 113%; under setting [30], 89.9%. The viability, T/C is 97.1% under setting [31]; 90.7% under setting [32]; 92.5% under setting [33]; 89.3% under setting [34]; 103% under setting [35]; 92% under setting [36]. Besides, the viability, T/C under setting [37] was 91.1%; the viability, T/C under setting [38] is 84.6%; the viability, T/C under setting [39] is 88%; the viability, T/C under setting [40] is 82.9%; the viability, T/C under setting [41] is 96.2%; the viability, T/C under setting [42] was 90.6%.
In the case of `COc1cccc2c1C(=O)c1c(O)c3c(c(O)c1C2=O)CC(O)(C(=O)CO)CC3OC1CC(N)C(O)C(C)O1` (centres undefined), the viability, T/C (compound 0.0316 µM) was 108% and 100% and 89.9%; the viability, T/C (compound 0.1 µM) was 88.7% and 92.9% and 92.4%; the viability, T/C (compound 0.316 µM) was 90.9% and 94.7% and 84.1%; the viability, T/C (compound 1 µM) was 90.9% and 89.8% and 68.8%; the viability, T/C (compound 3.16 µM) is 74.8% and 60.3% and 59%; the viability, T/C (compound 10 µM) is 44.5% and 47.9% and 43.7%. Also, under “curve of compound”, the 50% inhibitory concentration (IC50) was 8.21 µM and 8.19 µM and 5.94 µM.
